Test results reported in patent US20140309296A1, “BUDIODARONE FORMULATIONS” (Armetheon, Inc., priority 2013, published 2014).
Values joined by “and” are separate entries in the source; they are usually repeats but may differ in a detail not shown here. Equal entries are not always repeated. Where two headings read alike, the source gives them in different places.

Columns and labels:
[1] = Low ratio of benzyl alcohol to budiodarone in water and 5% dextrose solution, stability (Example 9); type: physicochemical; settings: 2.14/1 molar ratio, 25 mg/ml, room temperature
Experimental: The methanol was evaporated at 36° C. under partial vacuum (30 mmHg) to yield a thin film. To this residue was added 5 ml of water. The sample was then vortexed and a clear 25 mg/ml solution of budiodarone tartrate was obtained. A small aliquot was diluted 25 times with methanol and analyzed by HPLC (Sample 1). To the flask was then added 250 mg of D-(+)-glucose (also known as dextrose), resulting in a clear solution of 25 mg/ml budiodarone tartrate in 5% dextrose (D5W). A small sample was analyzed by HPLC (Sample 2).
Sample 2 is then analyzed over time to check physical and/or chemical stability in solution (Table 9).

[2] = pre-clinical safety testing; cited from earlier work
[3] = system: patients with paroxysmal atrial fibrillation (PAF); settings: cited from earlier work
[4] = Solubility of budiodarone tartrate in different co-solvents (Example 5); type: physicochemical; settings: co-solvent 3.6% to 14.4% in water, 25 mg/ml, 24 hours
Experimental: Co-solvents that are routinely used in injectable pharmaceutical preparations were studied. These were dimethylacetamide (DMA), dimethylsulfoxide (DMSO), ethanol (EtOH), and N-methylpyrrolidone (NMP). Samples were prepared as described in Table 4 below.
Samples were prepared by mixing all three components together as in previous examples, using a vortexer at maximum speed for 3×10 sec. Samples were then left in the dark for 24 hours and analyzed by HPLC following centrifugation to precipitate any insoluble material.

[5] = cited from earlier work; for tolerability: oral, up to 600 mg BID
[6] = Solubility of budiodarone tartrate in water containing various amounts of benzyl alcohol (Example 3); type: physicochemical
Experimental: Three series of samples were prepared. […] The vials were then capped and the mixtures were vortexed on a VWR Genie 2 vortexer at maximum speed for 3×10 sec duration. The final concentrations of budiodarone were 25 mg/ml, 50 mg/ml, and 100 mg/ml in water containing benzyl alcohol from 0.5% to 11% v/v. The vials were kept in the dark for 24 hours and analyzed by HPLC as per Example 1 Conditions 1.
The results are shown in FIG. 1, where the amount of budiodarone in solution is plotted as a function of the benzyl alcohol concentration. […] For example, at 25 mg/ml, budiodarone is soluble in approximately 1.5% to 4.5% v/v of benzyl alcohol. At 50 mg/ml, budiodarone is soluble in approximately 3% to 6% benzyl alcohol. At 100 mg/ml, budiodarone is soluble in approximately 4% to 8% benzyl alcohol.

[7] = system: patients with paroxysmal atrial fibrillation (PAF); settings: 12 weeks, cited from earlier work; for median reduction in AFB: compared to placebo
[8] = Solubility of budiodarone tartrate and benzyl alcohol in solvents of different ionic strengths (Example 4); type: physicochemical; settings: 5/1 benzyl alcohol, nominal 25 mg/ml, 1 hour
Experimental: To find out, five vials, each one containing budiodarone tartrate (200 mg, 0.234 mmoles) and benzyl alcohol (122 μl, 1.173 mmoles) were prepared. The molar ratio was therefore 5/1. To each of these vials was added 4 ml of water and the vials were vortexed, resulting in clear solutions containing 50 mg/ml of budiodarone tartrate and benzyl alcohol (molar ratio of 5/1). Then, 4 ml of one of the following solvents was added: 30 mM acetate buffer pH 5.2, 30 mM phosphate buffer saline pH 7.4, 30 mM Tris.HCl buffer pH 7.5, 1.8% sodium chloride (saline solution), and 10% dextrose solution (D10W) resulting in 15 mM concentration of buffer, 0.9% concentration of sodium chloride, and 5% concentration of dextrose (D5W), respectively.
Upon addition of an ionic solvent, all the samples except the D5W sample became turbid. The vials were then vortexed at high speed (3×10 sec) and left to stand for 1 hour. Then they were vortexed again (3×10 sec) and a 1-ml aliquot from each vial was centrifuged at 13,000 rpm for 10 min. A small aliquot of the clear supernatant was diluted 25-fold with methanol and analyzed by HPLC (Conditions 3). The remaining concentrations of budiodarone in the samples were as follows: […]

[9] = 600 mg BID, Treatment Months 1-3, ITT
[10] = 600 mg BID, Treatment Months 1-3, mITT

CC[C@H](C)OC(=O)Cc1oc2ccccc2c1C(=O)c1cc(I)c(OCCN(CC)CC)c(I)c1 [budiodarone, (1S)-1-methylpropyl 2-(3-{4-[2-(diethylamino)ethoxy]-3,5-diiodobenzoyl}benzofuran-2-yl)acetate]
time for which the low molar ratio is stable in D5W [1]: about 120 hours | findings in canine testes [2]: Non-specific but potentially toxic findings | decrease in AFB ([3]; 200 mg BID, mITT population, not statistically significant): 10% | median percent reduction from baseline in AT/AF burden ([3]; 400 mg BID, Treatment Months 1-3, ITT population): 54% | median percent reduction from baseline in AT/AF burden ([3]; 400 mg BID, Treatment Months 1-3, mITT population): 54% | median percent reduction in AT/AF burden ([3]; 600 mg BID, Treatment Month 3, ITT population, listed as ATI-2042): 80% and 83% | median percent reduction in AT/AF burden ([3]; 600 mg BID, Treatment Month 3, mITT population): 83% | median percent reduction from baseline in AT/AF burden ([3]; 600 mg BID, Treatment Months 1-3, ITT population): 74% | median percent change from baseline in duration of AT/AF episodes [3, 9]: −51.3% | median percent change from baseline in the number of AT/AF episodes [3, 9]: −52.9% | median percent increase in the duration of NSR [3, 9]: 208.8% | median percent reduction from baseline in AT/AF burden ([3]; 600 mg BID, Treatment Months 1-3, mITT population): 75% | median percent change from baseline in duration of AT/AF episodes [3, 10]: −51.3% | median percent change from baseline in the number of AT/AF episodes [3, 10]: −62.1% | median percent increase in the duration of NSR [3, 10]: 241.8% | decrease in number of AT/AF episodes (median percent change from baseline, FIG. 12) ([3]; 600 mg BID, all three treatment months): more than 60% | decrease in duration of episodes (FIG. 12) ([3]; 600 mg BID, treatment month 1): more than 50% | decrease in duration of episodes (FIG. 12) ([3]; 600 mg BID, treatment month 2): more than 70% | decrease in duration of episodes (FIG. 12) ([3]; 600 mg BID, treatment month 3): ~70% | mean episode duration (FIG. 13) ([3]; 600 mg, down from nearly 24): less than 1 hour | median AF episode duration ([3]; 600 mg, month 3): 0 | reduction of number and duration of AF episodes below baseline (FIG. 12) ([3]; 600 mg): about 70% | patients a lot or completely satisfied with the test medication (Patient GCI Scale) ([3]; ITT population, dose group not stated): 60.0% | patients reporting a lot of improvement or complete relief (Patient GCI Scale) ([3]; dose group not stated): 46.7% | AFB after washout ([3]; each of the three dose groups, one-month washout period): returned to essentially the baseline values | amount of solubilized budiodarone in the presence of DMA, DMSO, EtOH, or NMP [4]: not significantly different from the amount solubilized in water alone | creatinine ([5]; BUN unchanged): reversible elevation | ALT ([5]; appeared to be dose related): mild, reversible increase | tolerability [5]: safe and well tolerated | tolerability ([5]; listed as ATI-2042): well tolerated | tissue accumulation ([5]; slit lamp examination at the end of the treatment period): no evidence of budiodarone tissue accumulation | corneal deposits ([5]; slit-lamp examinations): No patient treated with ATI-2042 developed corneal deposits | molar ratio above which budiodarone was not fully soluble in water (phase separation) [6]: approximately 11/1 | lower limit of the molar ratio of benzyl alcohol to budiodarone that forms in solution ([6]; 25-100 mg/ml): approximately 5/1 | median reduction in AFB ([7]; 400 mg BID): 54.4% | median reduction in AFB ([7]; 600 mg BID): 75.5% | median reduction in AFB ([7]; 600 mg BID, listed as Budiodarone): up to 75.5% | safety ([7]; 200, 400 or 600 mg BID): no drug-related SAEs | remaining concentration of budiodarone ([8]; 0.9% saline solution): < 1 mg/mL | remaining concentration of budiodarone ([8]; Acetate buffer pH5.2 (15 mM)): < 1 mg/mL | remaining concentration of budiodarone ([8]; D5W): 26.6 mg/mL | remaining concentration of budiodarone ([8]; Phosphate buffer saline pH 7.4 (15 mM)): < 1 mg/mL | remaining concentration of budiodarone ([8]; Tris.HCl buffer pH7.5 (15 mM)): < 1 mg/mL
